The source of these data is PMC9312958, “A Novel and Selective Dopamine Transporter Inhibitor, (S)-MK-26, Promotes Hippocampal Synaptic Plasticity and Restores Effort-Related Motivational Dysfunctions” (Biomolecules, 2022).

The structures appear in SMILES notation.

In one test the test system is aged rats. Briefly: Hole-board test, spatial reference memory. It is filed as in vivo, rat. An excerpt:
In order to examine the effect of (S)-MK-26 on hippocampus-dependent spatial reference memory, we used the standardized hole-board test (animal experiments conducted under BMBWF-66.009/235/V/3b/2018 regulations) following published procedures with minor modifications. In brief, food restriction and controlled body weight loss with it (until steadily reaching 85% of the average body weight sustained during ad libitum feeding) was initially imposed for this experimental study as cognitive/behavioral incentive. A black plastic hole-board maze (1 m^2 base) with 16 symmetrically distributed holes located at the floor (7 cm in diameter and depth) and walls enriched with spatial cues was used (See Figure 4). Accessory distal cues were also visible in the walls of the experimental room. Dustless precision food pellets (45 mg, Bioserv®, Flemington, NJ, USA) were placed as motivational baits in four randomly designated holes, unchanged throughout the test. Several inaccessible pellets were also placed all across the entire area immediately below all the holes of the board maze in order to induce a uniform distribution of the food smell and thus preventing the acute orientating response of the sense of smell from prevailing over the evocation of spatial memories associated with the location of accessible food. […] The behavioral experiments were conducted in a noise-isolated room; all sessions were monitored by a distal overhead conventional digital camera and behavioral data digitalized using the ANY-Maze video tracking system (Stoelting Europe, 8-Terenure Place, Terenure, Dublin, D6W Y006, Ireland). Spatial memory performance was assessed from the number of errors made by the animal, that is, the number of times the animals visit unbaited holes (reference memory). […] Thus, from these measurements, an RMI value of “1” would constitute quantifiable indicator of optimal reference memory, with a performance without empty-hole visiting mistakes. […]

The test system of test [1] is adult male Sprague Dawley rats. Briefly: PROG/chow feeding choice task. It is filed as in vivo, rat. As for the experimental part: Pharmacological agents: (S)-MK-26 was obtained from the Lubec Laboratory (University of Vienna, Austria) and dissolved in dimethyl sulfoxide (DMSO) (10%), Tween 80 (15%), and 0.9% saline (75%). The DMSO/Tween 80/saline mixture was administered as the vehicle control. The dose range was selected as 3.75–45.0 mg/kg based on its DAT affinity and pilot studies. It was administered 30 min before testing. TBZ (9,10-dimethoxy3-(2-methylpropyl)-1,3,4,6,7, 11b hexahydrobenzo[a]quinolizin2-one) was obtained from Tocris Bioscience (Ellisville, MO) and was dissolved in DMSO (20%) and 0.9% saline (80%) and was titrated with 1.0 N HCl until the drug was dissolved at a pH of 4.0–4.5. The DMSO/saline solution with equal amounts of HCl was administered as the vehicle control. The selected dose was 1.0mg/kg based on the previous research from our laboratory. It was administered 120 min prior to testing. […]
Behavioral sessions were conducted in operant chambers (28 × 23 × 23 cm^3; Med Associates, Fairfax, VT) with 30 min sessions 5 days/week. […] The number of lever pressing was recorded and the amount of consumed chow was calculated by weighing the remaining food, including spillage. […]

`[O-][S@@+](Cc1cncs1)C(c1cccc(Cl)c1)c1cccc(Cl)c1` [(S)-MK-26, (S)-5-(((B(3-chlorophenyl)methyl)sulphinyl)methyl)thiazole]: the “spatial reference memory (reference memory index)” value in the test on aged rats (10 mg/kg i.p. daily, vs Kolliphor) is “slight and transitory—yet statistically significant—enhancement of spatial reference memory”. The “exploratory activity (distance travelled) during H3 habituation session” value with aged rats (10 mg/kg i.p., p = 0.0053) was “induced an increase in ecology-like exploratory activity”. In addition, the “number of hole dips” value in the test with aged rats (10 mg/kg i.p., vs Kolliphor) is “No differences”. Besides, the “effect on PROG lever presses” value in test [1] (45.0 mg/kg i.p. alone vs vehicle, p = 0.011) is “statistically significant difference between the vehicle and the highest dose”. Also, the “effect on chow intake” value in test [1] (30.0 and 45.0 mg/kg i.p. alone vs vehicle) is reported as “decreased chow intake”.
